Reference: patent US12172946B2, “Compound containing diphenylmethane structure and use thereof” (GUANGZHOU TROJAN PHARMATEC LTD., priority 2019, dated 2024)

Experiment: solubility of the compound in common solvents
Assay type: physicochemical
Conditions: 25-30° C.; for solubility in DMF: N,N-dimethylformamide; for solubility in i-PrOAc: isopropyl acetate; for solubility in MTBE: methyl tert-butyl ether
Description: The solubility of the compound of the present invention in common solvents was investigated (25-30° C.), and the results are shown in Table 1. It can be seen from Table 1 that the compound of the present invention has good solubility in all of heptane, isopropyl acetate (i-PrOAc), methyl tert-butyl ether (MTBE) and N,N-dimethylformamide (DMF), and particularly, the solubility in N,N-dimethylformamide is much higher than Comparative Examples.

solubility in DMSO | solubility in MeOH | solubility in DMF | solubility in Heptane | solubility in i-PrOAc | solubility in MTBE | Structure (SMILES)
<1% | <1% | >40% | >10% | >10% | >10% | CCCCCCCCCCCCCOc1cc(C(=O)NCCOCCOc2ccc(C(O)(c3ccccc3)c3ccccc3)cc2)cc(OCCCCCCCCCCCCC)c1OCCCCCCCCCCCCC [DPA-032]
<1% | <1% | >40% | >30% | >50% | >50% | CCCCCCCCCCCCCOc1cc(C(=O)NCCOCCOc2ccc(C(O)(c3ccccc3)c3ccccc3Cl)cc2)cc(OCCCCCCCCCCCCC)c1OCCCCCCCCCCCCC (stereo not drawn) [DPA-033]
<1% | <1% | >40% | >30% | >50% | >50% | CCCCCCCCCCCCCOc1cc(C(=O)NCCOCCOc2ccc(C(O)(c3ccccc3)c3ccc(Cl)cc3)cc2)cc(OCCCCCCCCCCCCC)c1OCCCCCCCCCCCCC (stereo not drawn) [DPA-034]
<1% | <1% | >0.1% | >100% | >100% | >100% | CC(C)CCCC(C)CCCC(C)CCCC(C)CCOc1cc(COc2ccc(C(N)c3ccccc3)cc2)cc(OCCC(C)CCCC(C)CCCC(C)CCCC(C)C)c1OCCC(C)CCCC(C)CCCC(C)CCCC(C)C (stereo not drawn) [REF-002, reference compound]

Structure (SMILES) | solubility in DMSO | solubility in MeOH | solubility in DMF | solubility in Heptane | solubility in i-PrOAc | solubility in MTBE
CC(C)CCCC(C)CCCC(C)CCCC(C)CCOc1ccc(C(N)c2ccc(OCCC(C)CCCC(C)CCCC(C)CCCC(C)C)cc2)cc1 (stereo not drawn) [REF-001, 4,4′-di(dihydrophytanyloxy)-benzhydrylamine, reference compound] | <1% | <1% | >0.1% | >50% | >100% | >100%
